Experimental data published in patent EP4790046A1, “NOVEL COMPOUND DERIVED FROM MYRISTICA FRAGRANS, AND ANTICANCER COMPOSITION COMPRISING SAME” (Korea Institute of Science and Technology, priority 2023, dated 2025).

Legend:
SNU-719 = experiment: alamarBlue cell viability (survival rate, IC50), SNU-719; type: cell-based; settings: SNU-719 (gastric cancer), compound 10 µM, 48 hours; read-out: Cancer cell line survival rate (%)
Source text: (§1) A p-value < 0.05 was considered statistically significant.

SW48 = experiment: alamarBlue cell viability (survival rate, IC50), SW48; type: cell-based; settings: Homo sapiens; SW48 (colorectal cancer), compound 10 µM, 48 hours; read-out: Cancer cell line survival rate (%)
Source text: as §1

MiaPaCa-2 = experiment: alamarBlue cell viability (survival rate), MiaPaCa-2; type: cell-based; settings: Homo sapiens, MIA PaCa-2; MiaPaCa-2 (pancreatic cancer), compound 10 µM, 48 hours; read-out: Cancer cell line survival rate (%)
Source text: as §1

SNU201 = experiment: alamarBlue cell viability (survival rate), SNU201; type: cell-based; settings: SNU201 (glioblastoma), compound 10 µM, 48 hours; read-out: Cancer cell line survival rate (%)
Source text: as §1

AGS = experiment: alamarBlue cell viability (survival rate, IC50), AGS; type: cell-based; settings: Homo sapiens; AGS (gastric cancer), compound 10 µM, 48 hours; read-out: Cancer cell line survival rate (%)
Source text: as §1

[1] = system: various cancer cell lines; experiment: alamarBlue cell viability, statements across the cell line panel; settings: various cancer cell lines
Experimental: AGS, SW48, HepG2, and MiaPaCa-2 was purchased from ATCC (American Type Culture Collection, USA), SNU cell lines from the Korean Cell Line Bank (KCLB, Korea), and 23132/87 from the Leibniz Institute DSMZ - German Collection of Microorganisms and Cell Cultures GmbH (DSMZ, Germany). All cell lines were cultured in RPMI-1640 medium (HyClone, USA) supplemented with 10% FBS (Gibco, USA) and 1% penicillin-streptomycin (HyClone, USA) under conditions of 5% CO2, 37°C.
Cells were seeded at a density of 5 × 10^3cells/well in a 96-well plate for 24 hours, then treated with the compound at an appropriate concentration (10 µM) for 48 hours. After treatment, alamarBlue reagent was added at a volume ratio of 1/10 of the treatment volume and incubated for 4 hours in a 37°C cell incubator (protected from direct light). Cell viability was then determined by measuring absorbance values at 570 nm and 600 nm using a microplate reader. The anticancer effects of candidate compounds were evaluated by assessing the cell viability (%) of cells treated at specific concentrations and the half-maximal inhibitory concentration (IC50) of each natural product. Doxorubicin and oxaliplatin were used as positive controls for gastric and colorectal cancer, respectively.
Statistical analysis was performed using R software (version 4.2.2) (R Core Team). Differences between groups were assessed using student's t-test or 1-way ANOVA followed by post-hoc Tukey HSD test. A p-value < 0.05 was considered statistically significant.
Further, to measure the IC50 values against six cancer cell lines.

SNU-81 = experiment: alamarBlue cell viability (survival rate, IC50), SNU-81; type: cell-based; settings: SNU-81 (colorectal cancer), compound 10 µM, 48 hours; read-out: Cancer cell line survival rate (%)
Source text: as §1

23132/87 = experiment: alamarBlue cell viability (survival rate, IC50), 23132/87; type: cell-based; settings: 23132/87 (gastric cancer), compound 10 µM, 48 hours; read-out: Cancer cell line survival rate (%)
Source text: as §1

SNU466 = experiment: alamarBlue cell viability (survival rate), SNU466; type: cell-based; settings: SNU466 (glioblastoma), compound 10 µM, 48 hours; read-out: Cancer cell line survival rate (%)
Source text: as §1

HepG2 = experiment: alamarBlue cell viability (survival rate), HepG2; type: cell-based; settings: Homo sapiens; HepG2 (liver cancer), compound 10 µM, 48 hours; read-out: Cancer cell line survival rate (%)
Source text: as §1

SNU-C5 = experiment: alamarBlue cell viability (survival rate, IC50), SNU-C5; type: cell-based; settings: SNU-C5 (colorectal cancer), compound 10 µM, 48 hours; read-out: Cancer cell line survival rate (%)
Source text: as §1

Row | SMILES | viability at 10 µM (SNU-719) [%] | viability at 10 µM (SW48) [%] | viability at 10 µM (MiaPaCa-2) [%] | viability at 10 µM (SNU201) [%] | viability at 10 µM (AGS) [%] | anticancer activity [1] | viability at 10 µM (SNU-81) [%] | viability at 10 µM (23132/87) [%] | viability at 10 µM (SNU466) [%] | viability at 10 µM (HepG2) [%] | viability at 10 µM (SNU-C5) [%]
1 | COc1cc(C(c2ccc(O)c(C(=O)CCCCCCCCc3ccc(O)c(O)c3)c2O)C(C)C(C)Cc2ccc3c(c2)OCO3)ccc1O (centres unmarked) [Compound 14, Myricone O] | 71.6 | 31.1 | 87.8 | 101 | 81.4 | high anticancer activity | 104 | 78.2 | 56.1 | 67 | 18.8
2 | COc1cc(CC(C)C(C)C(c2ccc(O)c(OC)c2)c2ccc(O)c(C(=O)CCCCCCCCc3ccc(O)c(O)c3)c2O)ccc1O (centres unmarked) [Compound 15, Myricone P] | 2.14 | 3.93 | 4.32 | 31.4 | 8.49 | high anticancer activity | 6.63 | 1.45 | 0.99 | 3.18 | 2.62
3 | COc1cc([C@H]2Oc3c(OC)cc(/C=C/Cc4cc(O)c(O)cc4CCCCCCCCC(=O)c4c(O)cccc4O)cc3[C@@H]2C)ccc1O [Compound 17, Myricone Q] | 54.9 | 60.2 | 59.9 | 105 | 80.5 | high anticancer activity | 113 | 85 | 45.6 | 108 | 58.5
4 | COc1ccc(/C=C/Cc2ccc(O)c(C(=O)CCCCCCCCc3ccc(O)c(O)c3)c2O)cc1OC [Compound 21, Myricone Z] | 4.6 | 3.51 | 7.58 | 67.8 | 6.86 | high anticancer activity | 33.6 | 2.4 | 0.95 | 6.05 | 6.53
